Reference: publication PMC11251039, “Harnessing cholesterol uptake of malaria parasites for therapeutic applications” (EMBO Molecular Medicine, 2024)
Where “and” joins values, the source holds several entries; their conditions need not be identical. Equal entries are not always repeated. Where two headings read alike, the source gives them in different places.

Assays:
[1] = tested on: asexual P. falciparum 3D7 wild-type parasites; assay: P. falciparum asexual growth inhibition assay (SYBR Safe DNA replication); assay type: cell-based, Plasmodium falciparum; conditions: for P. falciparum asexual growth, percentage of control: replicate values, source data Fig. 2B, listed as BC5B; for IC90 / IC50: Plasmodium falciparum; for IC50: read-out: IC50, P. falciparum asexual growth inhibition
Summary of the method: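 Sorbitol-synchronised ring-stage cultures at 1% parasitaemia and 1% haematocrit were exposed to 2-fold compound dilutions at 37 °C under microaerophilic conditions for 24, 48 or 72 h. Growth was read by SYBR Safe fluorescence of freeze-thaw lysates, with 200 nM chloroquine or artesunate defining background.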

[2] = tested on: human embryonic kidney cells (HEK293); assay: Human embryonic kidney cell viability assay (MTT); assay type: cell-based; conditions: Homo sapiens; 96 h, HEK293; read-out: IC50, human embryonic kidney cell inhibition (viability)
Summary of the method: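 HEK293 cells, 5,000 per well, exposed to serially diluted compound for 96 hours; 10 µg/mL cycloheximide as background control. Viability by MTT (0.45 mg/mL, 2 h), SDS solubilisation, absorbance at 570 nm.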

[3] = Human hepatoma viability assay (CellTiter-Blue); assay type: cell-based; conditions: human, replicate data points, read-out: Huh7 viability, dose-response data points (Figure 3F)
Procedure: (§1) Huh7 hepatoma viability assays were conducted in the same manner as the P. berghei assays, with metabolic capacity (indicating viability) measured with a fluorescence microplate reader after incubation with CellTiter-Blue® (Promega) for 3 h.
(§2) Appendix Fraser/Curtis et al. […]
(§3) Human Hepatoma Viability Assays:
(§4) The Huh7 hepatoma cell line (ATCC) was maintained under routine culture conditions in Dulbecco's Modified Eagle Medium (DMEM) containing 3.7 g/L NaHCO3 supplemented with 10% foetal bovine serum (FBS), 100 units/mL penicillin, and 100 μg/mL streptomycin at 37 °C in a humidified 5% CO2 incubator.
(§5) Viability assays were performed in parallel to the P. berghei growth inhibition. 10,000 Huh7 cells were seeded in 96-well and dark-sided microplates (Greiner Bio One) and cultured at 37°C, 5% CO2 and 80% humidity. The next day, the media was replaced with compounds or solvent controls (DMSO) serially diluted in culture media. Media was partially replaced with new drug dilutions over the following two days. After 48 hours, CellTiter-Blue® (Promega) was added according to the manufacturer’s instructions and incubated for 3 hours. Fluorescence intensity was measured with 530/25 ex and 590/20 em in a Synergy HTX plate reader (Agilent).

[4] = tested on: human hepatoma cells (Huh7); assay: Human hepatoma viability assay (CellTiter-Blue); assay type: cell-based; conditions: for Huh7 viability, dose-response data points (Figure 3F): replicate data points, listed as BC5B
Procedure: as §1, §2, §3, §4, §5

Q: For `COc1cc(NC(C)CCCNC(=O)CCC(=O)O[C@H]2CC[C@H]3[C@@H]4CC=C5C[C@@H](O)CC[C@]5(C)[C@H]4CC[C@]23C)c2ncccc2c1` (some centres unmarked) [C-17-PQ], which “Fold lower IC50 than primaquine alone” value [1] is on record?
A: The value was ~ 4 fold.

Q: What about the “P. falciparum asexual growth, percentage of control” value ([1]; 0.154296880 uM, 24 h) of the same molecule?
A: The value was 115.9% and 112.2% and 101.3% and 107.1% and 95.84% and 88.53% and 98.99% and 116.6% and 76.11%.

Q: What about the “P. falciparum asexual growth, percentage of control” value ([1]; 0.308593750 uM, 24 h) of the same molecule?
A: The value was 125.5% and 115.5% and 91.68% and 117.9% and 88.81% and 84.79% and 114.9% and 109.1% and 95.02%.

Q: And the “P. falciparum asexual growth, percentage of control” value ([1]; 0.617187500 uM, 24 h)?
A: Its value is 131.7% and 113.6% and 103% and 85.01% and 97.93% and 83.36% and 109% and 162.3% and 97.26%.

Q: What about the “P. falciparum asexual growth, percentage of control” value ([1]; 1.234375000 uM, 24 h) of the same molecule?
A: Its value is 120.1% and 114.6% and 99.7% and 107.3% and 77.37% and 93.38% and 101.7% and 96.22% and 102.4%.

Q: What about the “P. falciparum asexual growth, percentage of control” value ([1]; 2.468750000 uM, 24 h) of the same molecule?
A: Its value is 89.52% and 83.68% and 69.39% and 87.34% and 56.13% and 47.54% and 76.36% and 68.29% and 79.29%.

Q: And the “P. falciparum asexual growth, percentage of control” value ([1]; 4.937500000 uM, 24 h)?
A: The value was 14.72% and 24.05% and 6.418% and 5.536% and -2.79% and -3.361% and 18.05% and 30.2% and 18.39%.

Q: What about the “P. falciparum asexual growth, percentage of control” value ([1]; 9.875000000 uM, 24 h) of the same molecule?
A: Its value is 13.15% and 2.413% and -18.71% and -3.317% and -20.54% and -27.66% and -1.156% and -7.164% and -20.57%.

Q: What about the “P. falciparum asexual growth, percentage of control” value ([1]; 19.750000000 uM, 24 h) of the same molecule?
A: The value was -9.926% and -19.32% and -11.56% and 3.097% and -3.493% and -18.72% and 17.43% and -16.64% and -32.93%.

Q: And the “Fold difference in IC90 to primaquine” value ([1]; 24 h)?
A: Its value is ~ 8 fold.

Q: And the “Hill slope of inhibitory curve” value ([1]; 24 h)?
A: Its value is −4.56.

Q: What about the “Hill slope of inhibitory curve” value ([1]; 72 h) of the same molecule?
A: Its value is −4.20.

Q: What about the IC90 ([1]; 3D7, 24 h) of the same molecule?
A: Its IC90 is 5 µM.

Q: And the IC50 ([1]; 3D7, 24 h, 24 h, starting at ring stages)?
A: The IC50 was 3.1 µM.

Q: And the IC50 ([1]; 3D7, 48 h, 48 h)?
A: The IC50 was 3 µM.

Q: What about the IC90 ([1]; 3D7, 72 h) of the same molecule?
A: Its IC90 is 4 µM.

Q: And the IC50 ([1]; 3D7, 72 h, 72 h)?
A: The IC50 was 2.4 µM.

Q: What about the IC50 [2] of the same molecule?
A: The IC50 was > 50 µM.

Q: What about the viability at 48 h, 0.0152416 µM ([3]; 0.015241580 uM) of the same molecule?
A: Its viability at 48 h, 0.0152416 µM is 94.8%.

Q: What about the viability at 48 h, 0.0457247 µM ([3]; 0.045724740 uM) of the same molecule?
A: The viability at 48 h, 0.0457247 µM was 94.9%.

Q: And the viability at 48 h, 0.137174 µM ([3]; 0.137174210 uM)?
A: Its viability at 48 h, 0.137174 µM is 95.3%.

Q: And the viability at 48 h, 0.411523 µM ([3]; 0.411522630 uM)?
A: Its viability at 48 h, 0.411523 µM is 94.5%.

Q: And the “Huh7 viability, dose-response data points (Figure 3F)” value (“Huh7 viability” below) ([4]; 0.015241580 uM, 0.0152416 µM)?
A: The value was 98.89 and 98.22 and 98.39 and 94.42 and 103 and 100.2 and 102.1 and 98.78.

Q: And the “Huh7 viability” value ([4]; 0.045724740 uM, 0.0457247 µM)?
A: Its value is 96.51 and 98.69 and 94.1 and 96.38 and 90.79 and 82.31 and 84.01 and 89.64.

Q: And the “Huh7 viability” value ([4]; 0.137174210 uM, 0.137174 µM)?
A: The value was 106.8 and 96.95 and 95.92 and 94.98 and 96.42 and 101.8 and 95.52 and 109.1.

Q: What about the “Huh7 viability” value ([4]; 0.411522630 uM, 0.411523 µM) of the same molecule?
A: Its value is 95.23 and 97.59 and 96.23 and 88.28 and 94.64 and 96.4 and 105 and 96.39.

Q: What about the “Huh7 viability” value ([4]; 1.234567900 uM, 1.23457 µM) of the same molecule?
A: The value was 95.71 and 98.77 and 99.42 and 84.3 and 74.81 and 88.03 and 77.15 and 83 and 86.37.

Q: And the “Huh7 viability” value ([4]; 3.703703700 uM, 3.7037 µM)?
A: The value was 88.28 and 89.97 and 90.65 and 52.83 and 57.73 and 57.82 and 45.17 and 51.57 and 42.91.

Q: And the “Huh7 viability” value ([4]; 11.111111100 uM, 11.1111 µM)?
A: The value was 75.95 and 74.95 and 78.75 and 46.5 and 49.1 and 49.17 and 39.05 and 40.11 and 38.75.

Q: And the “Huh7 viability” value ([4]; 33.333333300 uM, 33.3333 µM)?
A: Its value is 79.29 and 78.52 and 76.32 and 47.53 and 46.72 and 48.69 and 34.13 and 38.39 and 36.44.

Q: What about the “Huh7 viability” value ([4]; 100.000000000 uM) of the same molecule?
A: Its value is 80.41 and 81.45 and 81.11 and 48.76 and 54.16 and 52.59 and 35.21 and 39.74 and 37.9.

Q: What about the IC50 ([4]; Homo sapiens, Huh-7, 48 h, read-out: IC50, human hepatoma inhibition (viability)) of the same molecule?
A: The IC50 was > 50 µM.
